Reference: patent publication US6989397B1, “Iron chelators and uses thereof” (University of Queensland, priority 1999, dated 2006)
Values joined by “and” are separate entries in the source; they are usually repeats but may differ in a detail not shown here. Identical values can stand only once.

Key:
Format in all cases: cell-based, human
SK-Mel-28 melanoma cells = assay: 59Fe release from prelabelled cells (iron efflux); conditions: labelled 3 h with 59Fe-transferrin 0.75 μM, reincubated 3 h at 37° C., chelators 50 μM, DFO 100 μM, Mean±SD
Method: The effect of chelators on ^59Fe uptake from ^59Fe-Tf and ^59Fe release from prelabelled cells was studied using standard procedures reported previously (Richardson et al., 1994, J. Lab Clin. Med. 124 660–71). The amount of ^59Fe internalized by the cells was measured by incubation with the general protease pronase (1 mg/ml) for 30 min at 4° C. to remove membrane-bound ^59Fe and Tf (Richardson et al., 1990; Baker et al., 1998, Biochim. Biophys. Acta 1380 21–30).
Table 1. The effect of DFO, 311, PCTH, PCBH, or PCBHH on ^59Fe release from BE-2 neuroblastoma cells, SK-N-MC neuroepithelioma cells, and SK-Mel-28 melanoma cells. Cells were labeled for 3 h at 37° C. with ^59Fe-transferrin (0.75 μM), washed, and then reincubated with the chelators for 3 h at 37° C. […] Results are Mean±SD of three determinations in a typical experiment.

[1] = system: iron-regulatory proteins (IRPs); assay: iron regulatory protein gel-retardation assay (IRP-RNA binding activity); conditions: SK-N-MC cells, 20 hr incubation; chelators 25 μM, DFO 100 μM, FAC 100 μg/ml
Method: FIG. 5. The effect of the chelators on the RNA-binding activity of the iron-regulatory proteins (IRPs) in the SK-N-MC neuroepithelioma cells. Cells were incubated for 20 h with either medium alone (control), ferric ammonium citrate (FAC: 100 μg/ml), DFO (100 μM), or the other chelators (25 μM).
A gel-retardation assay was used to measure the interaction between the IRPs and IRE using established techniques (Leibold et al., […]. Proc. Natl. Acad. Sci. USA 85 2171–5; Müllner et al., 1989 Cell 58 373–82). Briefly, after incubation with medium alone (control) or medium containing ferric ammonium citrate (100 μg/ml: Aldrich Ltd., Sydney, Australia) or the chelator. […] cells were washed with ice-cold phosphate-buffered saline (PBS) and lysed at 4° C. in 40 μl of ice-cold Munro extraction buffer (10 mM HEPES, pH 7.6, 3 mM MgCl2, 40 mM KCl, 5% glycerol, 1 MM dithiothreitol and 0.5% Nonidet P-40). After lysis, the samples were then centrifuged at 10,000 rpm for 3 mins at 4° C. to remove nuclei and the supernatant stored at −70° C. Frozen cytoplasmic extracts were thawed on ice and then centrifuged at 15,000 rpm for 10 min at 4° C. The protein concentration of the soluble supernatant was determined using the BioRad protein assay (BioRad Ltd., USA). Samples of cytoplasmic extracts were diluted to a protein concentration of 100 μg/ml in Munro buffer without Nonidet P-40 and 1 μg aliquots were analyzed for IRP by incubation with 0.1 ng (approximately 1×10^5 cpm) of ^32P-labelled pGL66 RNA transcript (Leibold et al., 1988). The riboprobe was transcribed in vitro from linearized plasmid templates using SP6 RNA polymerase in the presence of α-^32P UTP (Dupont, NEN). This latter reaction was performed using the Promega Riboprobe In Vitro Transcription Kit (Promega, Madison, Wis., USA). The probe was subsequently purified on a 6% urea/PAGE gel. To form RNA-protein complexes, cytoplasmic extracts containing 1 μg of protein were incubated for 10 mins at room temperature with the ^32P-labelled riboprobe. Unprotected probe was degraded by incubation with 1 U of RNAse T1 for 10 mins at room temperature. Heparin (Sigma) at a final concentration of 5 mg/ml was then added and incubated with the extract for another 10 min at room temperature to exclude non-specific binding. RNA-protein complexes were analyzed in 6% non-denaturing polyacrylamide gels at 4° C. as described by Konarska et al., 1986, Cell 46 845–55. Gels were dried, covered in plastic film and exposed to Kodak XAR films at −70° C. with an intensifying screen.
An important effect of intracellular Fe depletion using DFO is the activation of RNA-binding activity of the iron regulatory proteins (IRP's) (Hentze et al., 1996, Proc. Natl. Acad. Sci. USA 93 8175–82). […] The present inventors examined the effect of a 20 hr incubation with 311, PIH and the PCIH analogues (25 μM) on IRP-RNA binding activity in SK-N-MC cells. In all experiments, DFO (100 μM) was used as a positive control to deplete cells of Fe and increase IRP-RNA binding activity. In contrast, ferric ammonium citrate (FAC: 100 μg/ml) was used to donate Fe to cells and reduce IRP-RNA binding.

[2] = system: SK-N-MC neuroepithelioma cells; assay: internalized 59Fe uptake from 59Fe-transferrin; conditions: for Internalised Iron Uptake (% Control) / 59Fe uptake from 59Fe-Tf, % of the control value (FIG. 2B): SK-N-MC, chelators 50 μM, DFO 100 μM; for Internalised Iron Uptake (% Control): 59Fe-transferrin 0.75 μM, 3 h at 37° C., mean±SD; for 59Fe uptake from 59Fe-Tf, % of the control value (FIG. 2B): 3 hrs at 37° C., FIG. 2B screening experiment
Method: The effect of chelators on ^59Fe uptake from ^59Fe-Tf and ^59Fe release from prelabelled cells was studied using standard procedures reported previously (Richardson et al., 1994, J. Lab Clin. Med. 124 660-71). The amount of ^59Fe internalized by the cells was measured by incubation with the general protease pronase (1 mg/ml) for 30 min at 4° C. to remove membrane-bound ^59Fe and Tf (Richardson et al., 1990; Baker et al., 1998, Biochim. Biophys. Acta 1380 21-30). […] To determine the ability of the chelators to inhibit ^59Fe uptake from ^59Fe-Tf (0.75 μM). […] Table 2. The effect of DFO, 311, […], or PCBHH on internalized ^59Fe uptake from ^59Fe-transferrin by BE-2 neuroblastoma cells, SK-N-MC neuroepithelioma cells, and SK-Mel-28 melanoma cells. Cells were incubated with the chelators and ^59Fe-transferrin (0.75 μM) for 3 h at 37° C., washed, and incubated for 30 min at 4° C. with pronase (1 mg/ml) to separate the internalized from the membrane-bound ^59Fe. All chelators were screened at a concentration of 50 μM except for DFO which was examined at 100 μM. Results are mean±SD (three determinations) from a typical experiment.

Structure (SMILES)	% Cellular Iron Released (SK-Mel-28 melanoma cells) [%]	IRP-RNA binding activity compared to the control (FIG. 5) [1]	Internalised Iron Uptake (% Control) [2]	59Fe uptake from 59Fe-Tf, % of the control value (FIG. 2B) [2]	59Fe uptake from 59Fe-Tf, % of the control, range over all 3 cell lines ([2]; BE-2, SK-N-MC and SK-Mel-28 cell lines together, 3 hr, 50 μM, Table 2)
O=C(NN=Cc1ccccn1)c1ccccc1 [PCBH, 2-pyridylcarboxaldehyde benzoyl hydrazone]	54 ± 4	marked increase	20 ± 2 % Control	–	–
O=C(NN=Cc1ccco1)c1ccncc1 [FIH, 2furoylcarboxaldehyde isonicotinoyl hydrazone]	–	decreased	–	no effect	–
O=C(NN=Cc1ccccn1)c1cccs1 [PCTH, 2-pyridylcarboxaldehyde 2-thiophenecarboxyl hydrazone]	57 ± 6	marked increase	16 ± 1 % Control	–	–
CC(=O)N(O)CCCCCNC(=O)CCC(=O)N(O)CCCCCNC(=O)CCC(=O)N(O)CCCCCN [DFO, desferrioxamine, reference compound]	27 ± 1	increase	100 % Control and 100 ± 6 % Control	91 % of the control	–
O=C(NN=Cc1c(O)ccc2ccccc12)c1ccncc1 [Chelator 311, 2-hydroxy-1-naphthylaldehyde isonicotinoyl hydrazone, reference compound]	70 ± 1	marked increase	10 ± 4 % Control	–	8–10 % of the control
